The source of these data is PMC3210067 (Nature chemical biology, 2011).

The nature of data set [1]: human liver microsomal stability. It counts as in vitro ADME. The note with it: liver microsomes, pH 7.4. On the technique in general: Liver microsomes are a subcellular fraction often used to study metabolism.
Data set [2] in a line: rat liver microsomal stability. The note with it: liver microsomes, pH 7.4. It counts as in vitro ADME.
A further data set in a line: H/D exchange studies. In kind it is physicochemical. As to conditions: for H/D exchange of amide N-H (in words): CDCl3, 5% MeOH-d4/0.5% HOAc-d4.
A further data set can be described thus: in vivo. The note with it: male, Wistar-Han, rat, po, 10 mg/kg.
A short description of the next data set: human plasma stability. In kind it is in vitro ADME. As to conditions: pH 7.4.
[3] abbreviates: CDCl3, 5% CD3OD / 0.5% CD3CO2D, 297 K.

Non-standard residues stand in square brackets, D forms with d. Residues, ends and D or L forms follow the SMILES beside them. NMeY = CN[C@@H](Cc1ccc(O)cc1)C(=O)O; NMeL = CN[C@@H](CC(C)C)C(=O)O; dNMeL = CN[C@H](CC(C)C)C(=O)O

The term microsomal CLint denotes a measure of how fast metabolising enzymes remove a compound, apart from limits set by blood flow. Turning to `CC(C)C[C@@H]1NC(=O)[C@H](CC(C)C)N(C)C(=O)[C@@H](CC(C)C)N(C)C(=O)[C@H](CO)NC(=O)[C@H](Cc2ccc(O)cc2)N(C)C(=O)[C@H]2CCCN2C1=O` [3 L^1S] (cyclo(L[dP][NMeY]S[dNMeL][NMeL])), the microsomal CLint at 1 µM in data set [1] is 54 µL/min/mg; in data set [2], 98 µL/min/mg.
As for `CC(C)C[C@@H]1NC(=O)[C@H](Cc2ccc(O)cc2)NC(=O)[C@H]2CCCN2C(=O)[C@H](CC(C)C)NC(=O)[C@H](CC(C)C)NC(=O)[C@@H](CC(C)C)NC1=O` [compound 1, cyclo[Leu, D-Leu, Leu, Leu, D-Pro, Tyr]] (cyclo(LL[dP]YL[dL])), the “H/D exchange of amide N-H (in words)” value in “H/D exchange studies” is listed as “exchanged within minutes or hours”.
Same read-out and setting: then `CC(C)C[C@@H]1NC(=O)[C@H](CC(C)C)NC(=O)[C@@H](CC(C)C)NC(=O)[C@H](Cc2ccc(O)cc2)NC(=O)[C@H]2CCCN2C(=O)[C@H](CC(C)C)NC1=O` [compound 2] (cyclo(LLL[dP]Y[dL])), with “exchanged with solvent over a few hours”.
As usually defined, the AUC is the area under the concentration-time curve, a measure of exposure. Higher therefore signals more exposure. As for `CC(C)C[C@@H]1NC(=O)[C@H](Cc2ccc(O)cc2)N(C)C(=O)[C@H]2CCCN2C(=O)[C@H](CC(C)C)NC(=O)[C@H](CC(C)C)N(C)C(=O)[C@@H](CC(C)C)N(C)C1=O` [compound 3] (cyclo(L[dNMeL][NMeL]L[dP][NMeY])), in the data set “H/D exchange studies” (setting [3]), the “t1/2 (H-D exchange) NH (a)” value was above 24 h and the “t1/2 (H-D exchange) NH (b)” value is above 24 h. In the data set “H/D exchange studies”, the “H/D exchange of amide N-H (in words)” value is on record as “over a period of several days”. In the data set “in vivo”, this compound came in with an AUC of 10.5 ng·h/mL.
In general, half-life refers to how long it takes for the measured level to halve. Consider `CC(C)C[C@@H]1NC(=O)[C@H](CC(C)C)N(C)C(=O)[C@@H](CC(C)C)N(C)C(=O)[C@H](Cc2ccc(O)cc2)N(C)C(=O)[C@H]2CCCN2C(=O)[C@H](CC(C)C)N(C)C1=O` [compound 4] (cyclo(L[NMeL][dP][NMeY][dNMeL][NMeL])), for which the microsomal CLint at 1 µM was above 320 µL/min/mg in data set [1] and above 491 µL/min/mg in data set [2]. The same compound showed a half-life at 1 µM in the data set “human plasma stability” above 6 h. Further, the “H/D exchange of amide N-H (in words)” value in the data set “H/D exchange studies” is “negligible exchange over 24 h”.
For `CC(C)C[C@@H]1C(=O)N(C)[C@@H](CC(C)C)C(=O)N(C)[C@@H](CC(C)C)C(=O)N2CCC[C@@H]2C(=O)N(C)[C@@H](Cc2ccc(O)cc2)C(=O)N(C)[C@@H](CC(C)C)C(=O)N1C` [compound 5] (cyclo([NMeL][NMeL][dP][NMeY][NMeL][dNMeL])), the microsomal CLint at 1 µM in data set [1] is above 320 µL/min/mg; in data set [2], 317 µL/min/mg. In the data set “human plasma stability”, this compound returned a half-life at 1 µM above 6 h.
In the case of `CC(C)C[C@@H]1C(=O)N(C)[C@@H](CC(C)C)C(=O)N(C)[C@@H](CC(C)C)C(=O)N(C)[C@@H](CC(C)C)C(=O)N2CCC[C@@H]2C(=O)N(C)[C@@H](Cc2ccc(O)cc2)C(=O)N1C` [compound 6] (cyclo([NMeL][NMeL][NMeL][dP][NMeY][dNMeL])), the microsomal CLint at 1 µM came out at 191 µL/min/mg in data set [1] and 62.6 µL/min/mg in data set [2]. In “human plasma stability”, this compound had a half-life at 1 µM above 6 h.
